What all share (format): functional
For assay [1], the system named is Staphylococcus aureus. Kind of assay: In vitro minimum inhibitory concentration against Staphylococcus aureus ATCC 25923 after incubation in air at 35 degree C for 24 hr using agar dilution method. Conditions: ATCC 25923, 24 h.
In the next assay the test system is Streptococcus pneumoniae. Kind of assay: In vitro minimum inhibitory concentration against Streptococcus pneumoniae ATCC 6303 after incubation in air at 35 degree C for 24 hr using agar dilution method. Particulars: ATCC 6303, 24 h. For orientation: Agar dilution tests growth on a series of plates holding different concentrations.
A further assay has as its system Enterococcus faecalis. Kind of assay: In vitro minimum inhibitory concentration against Enterococcus faecalis ATCC 29212 after incubation in air at 35 degree C for 24 hr using agar dilution method. Conditions: ATCC 29212, 24 h.
Assay [2] deals with Escherichia coli. Kind of assay: Minimum inhibitory concentration against […] AB pump deficient Escherichia coli strain.
Assay [3] has as its system Staphylococcus aureus. Kind of assay: In vitro minimum inhibitory concentration against methicillin-resistant Staphylococcus aureus 562 after incubation in air at 35 degree C for 24 hr using agar dilution method.
The test system of assay [4] is Escherichia coli. Put plainly: Minimum inhibitory concentration against Tol C pump deficient Escherichia coli strain.
The next assay concerns Enterococcus faecium. Put plainly: In vitro minimum inhibitory concentration against vancomycin-resistant Enterococcus faecium 6A after incubation in air at 35 degree C for 24 hr using agar dilution method.
In assay [5] the test system is Escherichia coli. Kind of assay: Minimum inhibitory concentration against wild-type Escherichia coli strain.
In a further assay the test system is Streptococcus pyogenes. Put plainly: In vitro minimum inhibitory concentration against Streptococcus pyogenes ATCC 19615 after incubation in air at 35 degree C for 24 hr using agar dilution method. Conditions: ATCC 19615, 24 h.

Structures are written as SMILES.

For the molecule `CC(=O)NC[C@H]1CN(c2ccc(N3CCN(Cc4ccc([N+](=O)[O-])o4)CC3)c(F)c2)C(=O)O1.Cl` [RANBEZOLID CHLORIDE], the minimal inhibitory concentration (MIC) against Staphylococcus aureus [1] stood at 1 µg/mL; with Streptococcus pneumoniae, 0.125 µg/mL; against Enterococcus faecalis it was 2 µg/mL; against Escherichia coli [2], 2 µg/mL; in the assay on Staphylococcus aureus [3], 1 µg/mL; in the assay on Escherichia coli [4] it was 2 µg/mL. Also, the minimal inhibitory concentration (MIC) in the assay with Enterococcus faecium was 2 µg/mL; in the assay on Escherichia coli [5], not above 16 µg/mL; in the assay on Streptococcus pyogenes, 0.125 µg/mL.

The term MIC denotes the smallest concentration in the dilution series that meets the test's criterion for growth inhibition. Read a high MIC as weaker potency.

Values taken from ChEMBL document CHEMBL1141053, “Synthesis and SAR of novel oxazolidinones: discovery of ranbezolid” (2005).
